Measured values reported in PubChem BioAssay (NCI).
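Grown in 96-well plates, cells were treated for 48 hours with each compound at five concentrations. Insufficient inhibition: endpoint recorded as highest concentration tested. Here, GI50 denotes the concentration required for 50% inhibition of growth. The concentration for full growth arrest is given as TGI.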

Key:
Experiment in all cases: NCI anticancer screen, dose series, 48 h
EKVX NSCLC = tested on: EKVX NSCLC
HCT-15 colon = tested on: HCT-15 colon
UACC-257 melanoma = tested on: UACC-257 melanoma
OVCAR-4 ovarian = tested on: OVCAR-4 ovarian
M14 melanoma = tested on: M14 melanoma
UO-31 renal = tested on: UO-31 renal
OVCAR-5 ovarian = tested on: OVCAR-5 ovarian
HOP-92 NSCLC = tested on: HOP-92 NSCLC
PC-3 prostate = tested on: PC-3 prostate
DU-145 prostate = tested on: DU-145 prostate

| SMILES | TGI (EKVX NSCLC) | TGI (HCT-15 colon) | TGI (UACC-257 melanoma) | TGI (OVCAR-4 ovarian) | TGI (M14 melanoma) | TGI (UO-31 renal) | TGI (OVCAR-5 ovarian) | TGI (HOP-92 NSCLC) | TGI (PC-3 prostate) | TGI (DU-145 prostate) | GI50 (HCT-15 colon) | GI50 (PC-3 prostate) | GI50 (UACC-257 melanoma) | GI50 (OVCAR-4 ovarian) | GI50 (M14 melanoma) | GI50 (DU-145 prostate) | GI50 (UO-31 renal) | GI50 (OVCAR-5 ovarian) | GI50 (HOP-92 NSCLC) | GI50 (EKVX NSCLC) |
| --- | --- | --- | --- | --- | --- | --- | --- | --- | --- | --- | --- | --- | --- | --- | --- | --- | --- | --- | --- | --- |
| CC12CCC3(OCCO3)C(OC(=O)c3ccccc3)=C1CCC21OCCO1 (configuration not stated) | > 100 µM | > 100 µM | > 100 µM | > 100 µM | > 100 µM | > 100 µM | > 100 µM | > 100 µM | – | – | – | – | – | – | – | – | – | – | – | – |
| Oc1ccc(C(c2ccc(O)cc2)c2ccc(O)cc2)cc1 | 46.8 µM | 55.3 µM | 52.4 µM | 29.1 µM | – | 44.6 µM | – | 60.5 µM | 66.5 µM | 81.6 µM | – | – | – | – | – | – | – | – | – | – |
| Cc1ccc(NC(=O)CC2Sc3ccccc3NC2=O)c(C)c1 (configuration not stated) | > 100 µM | – | 39.7 µM | 48.1 µM | 36.5 µM | 34.8 µM | 73 µM | 39.5 µM | – | – | – | – | – | – | – | – | – | – | – | – |
| C/C(CC(=O)Nc1ccc(C)c(C)c1)=N\NC(N)=O | > 100 µM | – | > 100 µM | – | > 100 µM | > 100 µM | > 100 µM | > 100 µM | – | – | – | – | – | – | – | – | – | – | – | – |
| COc1c2ccoc2c(OC)c2oc(=O)ccc12 | > 100 µM | > 100 µM | > 100 µM | > 100 µM | > 100 µM | > 100 µM | > 100 µM | – | > 100 µM | > 100 µM | – | – | – | – | – | – | – | – | – | – |
| O=[P+](O)c1ccsc1 | > 100 µM | > 100 µM | – | – | > 100 µM | > 100 µM | – | > 100 µM | – | – | – | – | – | – | – | – | – | – | – | – |
| NCCOCCOCCNc1nc(-c2ccccc2)nc(N2CCN(c3ccccn3)CC2)n1 | – | 27.9 µM | 12.9 µM | 26.3 µM | 5.31 µM | 25.8 µM | 30.4 µM | 11.1 µM | 30.8 µM | 28.7 µM | 13.1 µM | 15.7 µM | 3.23 µM | 13.4 µM | 2.16 µM | 15.2 µM | 12.7 µM | 16.1 µM | 1.84 µM | – |
| Nc1c(C(=O)Nc2cccc(F)c2)sc2nc3c(cc12)C(=O)CCC3 | – | > 100 µM | – | > 100 µM | > 100 µM | > 100 µM | > 100 µM | > 100 µM | > 100 µM | > 100 µM | 0.298 µM | 0.347 µM | – | > 55.1 µM | 0.397 µM | 0.354 µM | – | 2.24 µM | 0.589 µM | – |
| CCOC(=O)c1cc2c(cc1Cl)SC(N(c1ccc(OC)cc1)S(=O)(=O)c1ccc(Cl)cc1)=NS2(=O)=O | > 100 µM | > 100 µM | – | > 100 µM | > 100 µM | > 100 µM | > 100 µM | 38.6 µM | 58.6 µM | 79.9 µM | 32.3 µM | 20 µM | – | 26.1 µM | 38.7 µM | 24 µM | 32 µM | > 100 µM | 19.1 µM | 41.7 µM |
| C=C1CCC2C3(C)COC(c4ccccc4)OC3CCC2(C)C1/C=C/C1=CCOC1=O (configuration not stated) | > 100 µM | 11.5 µM | > 100 µM | 16.3 µM | 36.7 µM | 18.2 µM | 22 µM | – | 51.3 µM | 12.8 µM | 2.41 µM | 4.75 µM | 63.4 µM | 3.63 µM | 6.4 µM | 3.77 µM | 4.88 µM | 9.58 µM | – | 13.7 µM |
| O=c1c(Br)cc2nc3ccccc3sc-2c1Br | > 100 µM | > 100 µM | > 85.4 µM | > 70.9 µM | > 100 µM | > 100 µM | > 100 µM | > 100 µM | – | – | – | – | – | – | – | – | – | – | – | – |
| O=C(c1ccccc1)C1OC1c1ccc([N+](=O)[O-])cc1 (configuration not stated) | > 100 µM | > 100 µM | > 100 µM | > 100 µM | 12.9 µM | 93.2 µM | 56.9 µM | – | > 100 µM | – | 4.28 µM | 9.9 µM | 16.7 µM | 4.57 µM | 2.98 µM | – | 5.94 µM | 19.6 µM | – | 22.8 µM |
| Clc1ccc(-c2c3c(nn2-c2ccccn2)CCc2ccccc2-3)cc1Cl | > 100 µM | > 100 µM | > 100 µM | > 100 µM | > 100 µM | > 100 µM | > 100 µM | – | > 100 µM | > 100 µM | > 100 µM | > 100 µM | > 100 µM | 39.8 µM | 34 µM | > 100 µM | > 100 µM | > 100 µM | – | > 100 µM |
| CC(=O)C1=C(O)C=C2Oc3c(C(=O)/C=C/c4c(Cl)cccc4Cl)c(O)c(C)c(O)c3[C@]2(C)C1=O | 7.24 µM | 2.94 µM | 6.82 µM | 11.3 µM | 3.83 µM | 7.59 µM | 8.13 µM | – | 2.49 µM | 6.31 µM | 0.668 µM | 0.596 µM | 2.01 µM | 3.19 µM | 0.961 µM | 0.966 µM | 1.92 µM | 3.09 µM | – | 1.63 µM |
| O=C(O)CCC(N=Cc1nc(-c2ccccc2)oc1O)C(=O)O (configuration not stated) | > 100 µM | > 100 µM | > 100 µM | > 100 µM | > 100 µM | > 100 µM | > 100 µM | – | – | – | – | – | – | – | – | – | – | – | – | – |
| CCOC(=O)N1CCC(=O)C(CNC23CC4CC(CC(C4)C2)C3)C1 (configuration not stated) | > 100 µM | – | 42.4 µM | 29 µM | – | > 100 µM | > 100 µM | 41 µM | – | – | – | – | – | – | – | – | – | – | – | – |
| CC(C)([NH-])CO.CC(C)([NH-])CO.[Cl][Cd][Cl] | – | 41.4 µM | > 100 µM | 25.8 µM | 33.4 µM | > 100 µM | 30.5 µM | 34 µM | – | – | 20.3 µM | – | > 100 µM | 12.4 µM | 18 µM | – | 35.4 µM | 16.8 µM | 19.3 µM | – |
| O=C1C=CC(=Nc2cc(Br)c(O)c(Br)c2)C=C1 | > 100 µM | 43.8 µM | > 100 µM | > 100 µM | > 100 µM | > 100 µM | 60.5 µM | > 100 µM | – | > 100 µM | 16.5 µM | – | 32.5 µM | 43 µM | 23.9 µM | 30 µM | 22 µM | 24.4 µM | 39.6 µM | 52 µM |
